Patent US6777440B2, “HIV integrase inhibitors” (Bristol-Myers Squibb Company, priority 2001, dated 2004)

Tests used:
[1] = target: T1, HIV-integrase (Human immunodeficiency virus type 1 group M subtype B, UniProt P04585); assay: HIV-integrase inhibition activity (SPA bead strand-transfer assay); type: biochemical; settings: 50 μM compound; recombinant integrase
T1 construct: 0.26 ng of recombinant integrase was incubated with the beads
Experimental: For each reaction, 5 pmole of biotin labled substrate DNA was bound to 100 ug of Streptavidin coated PVT SPA beads (Amersham Pharmacia Biotech). 0.26 ng of recombinant integrase was incubated with the beads for 90 min at 37° C. Unbound enzyme was removed by washing the complex followed by addition of inhibitors and 0.1 fmol of P33 labeled target DNA. Reaction was stopped by adding EDTA to a final concentration of 10 mM. Samples were counted in TopCountNXT (Packard) and the CPM was used as a measure of integration. Reaction condition was as described in A. Engelman and R. Craigie, J. Virol. 69, 5908-5911 (1995). The sequences of substrate and target DNA were described in Nucleic Acid Research 22, 1121-1122 (1994). Compounds of this invention tested in this assay have IC50's of approximately 0.01 to 50 μM

| melting point | SMILES | inhibition at 50 µM [1] |
| --- | --- | --- |
| 129 to 130 °C | CON(Cc1ccc(F)cc1C(F)(F)F)C(=O)/C=C1\OC(C)(C)OC1=O |  |
| 120 to 125 °C | CON(Cc1ccc(F)cc1F)C(=O)/C=C1\OC(C)(C)OC1=O |  |
| 113 to 116 °C | CC1(C)OC(=O)/C(=C/C(=O)N(Cc2ccc(Cl)c(Cl)c2)OCc2ccccc2)O1 |  |
| 108 to 111 °C (dec.) | CON(Cc1ccc(C)cc1)C(=O)/C=C(\O)C(=O)O |  |
| 106 to 107 °C | CON(CCc1ccc(F)cc1)C(=O)/C=C1\OC(C)(C)OC1=O |  |
| 129 to 130 °C | CON(Cc1ccc(Cl)cc1)C(=O)/C=C1\OC(C)(C)OC1=O |  |
| 95 to 96 °C | CCON(Cc1ccc(F)cc1)C(=O)/C=C1\OC(C)(C)OC1=O |  |
| 131 °C | CON(Cc1ccc(C)c(F)c1)C(=O)/C=C1\OC(C)(C)OC1=O |  |
| 103 °C | CON(Cc1ccccc1OC(C)C)C(=O)/C=C1\OC(C)(C)OC1=O |  |
| 105 to 106 °C | CON(CCCc1ccc(Cl)c(Cl)c1)C(=O)/C=C1\OC(C)(C)OC1=O |  |
| 99 °C | CON(Cc1ccc(C)c(F)c1)C(=O)/C=C(\O)C(=O)O |  |
| 217 to 219 °C | CON(Cc1ccc(C(=O)O)cc1)C(=O)/C=C1\OC(C)(C)OC1=O |  |
| 110 to 111 °C | CON(Cc1cccc(F)c1)C(=O)/C=C1\OC(C)(C)OC1=O |  |
| 120 to 122 °C | CON(Cc1ccc(F)c(C)c1)C(=O)/C=C(\O)C(=O)O |  |
| 107 to 108 °C | CC1(C)OC(=O)/C(=C/C(=O)N(Cc2ccccc2)OCc2ccccc2)O1 |  |
| 95 to 96 °C | CN(C)CCON(Cc1ccc(F)cc1)C(=O)/C=C1\OC(C)(C)OC1=O |  |
| 108 to 110 °C | CON(Cc1ccc(C(F)(F)F)cc1)C(=O)/C=C(\O)C(=O)O |  |
| 120 °C | COC(=O)c1ccc(CN(OC)C(=O)/C=C2\OC(C)(C)OC2=O)cc1 |  |
| 109 to 111 °C | CON(Cc1ccccc1F)C(=O)/C=C1\OC(C)(C)OC1=O |  |

| melting point | SMILES | inhibition at 50 µM [1] |
| --- | --- | --- |
| 123 to 125 °C | CON(Cc1ccc(C(=O)O)cc1)C(=O)/C=C(\O)C(=O)O |  |
| 127 to 128 °C | CON(Cc1ccc(F)cc1Cl)C(=O)/C=C1\OC(C)(C)OC1=O |  |
| 107 to 108 °C | CON(Cc1ccc(F)c(C)c1)C(=O)/C=C1\OC(C)(C)OC1=O |  |
| 148 to 149 °C | CON(Cc1ccc(C#N)cc1)C(=O)/C=C1\OC(C)(C)OC1=O |  |
| 108 to 110 °C | CON(Cc1ccc(C)cc1)C(=O)/C=C1\OC(C)(C)OC1=O |  |
| 119 to 120 °C | CC(C)(C)OC(=O)CON(Cc1ccc(F)cc1)C(=O)/C=C1\OC(C)(C)OC1=O |  |
| 96 to 97 °C | CON(Cc1ccccc1C)C(=O)/C=C1\OC(C)(C)OC1=O |  |
| 137 to 138 °C | CON(Cc1ccc(C(=O)OC(C)(C)C)cc1)C(=O)/C=C1\OC(C)(C)OC1=O |  |
| 106 °C (dec.) | CON(CCCc1ccc(Cl)c(Cl)c1)C(=O)/C=C(\O)C(=O)O |  |
| 90 to 91 °C | CON(CCCc1ccc(F)cc1)C(=O)/C=C1\OC(C)(C)OC1=O |  |
| 110 °C | CON(Cc1ccc(C(F)(F)F)cc1)C(=O)/C=C1\OC(C)(C)OC1=O |  |
| 140 to 143 °C | CON(Cc1ccc(F)cc1Cl)C(=O)/C=C(\O)C(=O)O |  |
| 127 to 129 °C | CC(C)(C)OC(=O)CON(Cc1ccc(Cl)c(Cl)c1)C(=O)/C=C1\OC(C)(C)OC1=O |  |
| 105 to 106 °C | CC(C)CON(Cc1ccc(F)cc1)C(=O)/C=C1\OC(C)(C)OC1=O |  |
| 109 to 110 °C | CON(Cc1ccccc1)C(=O)/C=C1\OC(C)(C)OC1=O |  |
| 86 °C (dec.) | CON(CCCc1ccc(F)cc1)C(=O)/C=C(\O)C(=O)O |  |
| 212 to 215 °C (dec.) | CON(Cc1ccc(NC(C)=O)cc1)C(=O)/C=C1\OC(C)(C)OC1=O |  |
| 113 to 114 °C | COc1ccc(CN(OC)C(=O)/C=C2\OC(C)(C)OC2=O)cc1 |  |
| 117 to 119 °C | CON(Cc1ccc(F)c(Br)c1)C(=O)/C=C1\OC(C)(C)OC1=O |  |

The next lines start with the compound.

| SMILES | melting point | inhibition at 50 µM [1] |
| --- | --- | --- |
| O=C(CON(Cc1ccc(F)cc1)C(=O)/C=C(\O)C(=O)O)NCc1ccc(Cl)cc1 [Compound 66] |  | > 99% |
| CCNC(=O)CON(Cc1ccc(F)cc1)C(=O)/C=C(\O)C(=O)O [Compound 78] |  | > 99% |
| CC(=O)N1CCCN(C(=O)CON(Cc2ccc(F)cc2)C(=O)/C=C(\O)C(=O)O)CC1 [Compound 77] |  | > 99% |
| O=C(O)CON(Cc1ccc(F)cc1)C(=O)/C=C(\O)C(=O)O [Compound 24, 3-[Carboxymethoxy-(4-fluoro-benzyl)-carbamoyl]-2-hydroxy-acrylic acid] | 135 to 138 °C | 99.9% |
| O=C(O)/C(O)=C/C(=O)N(Cc1ccccc1)OCc1ccccc1 [Compound 2, 3-(Benzyl-benzyloxy-carbamoyl)-2-hydroxy-acrylic acid] |  | 99.9% |
| CCON(Cc1ccc(F)cc1)C(=O)/C=C(\O)C(=O)O [Compound 12, 3-[Ethoxy-(4-fluoro-benzyl)-carbamoyl]-2-hydroxy-acrylic acid] | 120 to 121 °C (dec.) | 99.9% |
| CCCN(CC1CC1)C(=O)CON(Cc1ccc(F)cc1)C(=O)/C=C(\O)C(=O)O [Compound 73] |  | > 99% |
| Cc1ccc(CNC(=O)CON(Cc2ccc(F)cc2)C(=O)/C=C(\O)C(=O)O)cc1 [Compound 68] |  | > 99% |
| CC(C)(C)OC(=O)CON(Cc1ccc(F)cc1)C(=O)/C=C(\O)C(=O)O [Compound 20, 3-[tert-Butoxycarbonylmethoxy-(4-fluoro-benzyl)-carbamoyl]-2-hydroxy-acrylic acid] | 73 °C (dec.) | 99.9% |
| O=C(O)/C(O)=C/C(=O)N(Cc1ccc(F)cc1)OCC(=O)N1CCOCC1 [Compound 62] |  | > 99% |
| COc1ccc(CNC(=O)CON(Cc2ccc(F)cc2)C(=O)/C=C(\O)C(=O)O)cc1 [Compound 67] |  | > 99% |
| CCCCN(Cc1ccccc1)C(=O)CON(Cc1ccc(F)cc1)C(=O)/C=C(\O)C(=O)O [Compound 72] |  | > 99% |
| CN(CCCC(c1ccc(Cl)cc1)c1ccc(Cl)cc1)C(=O)CON(Cc1ccc(F)cc1)C(=O)/C=C(\O)C(=O)O [Compound 71] |  | > 99% |
| O=C(CON(Cc1ccc(F)cc1)C(=O)/C=C(\O)C(=O)O)NCc1ccc(C(F)(F)F)cc1 [Compound 69] |  | > 99% |
| CON(Cc1ccc(F)c(F)c1)C(=O)/C=C(\O)C(=O)O [Compound 11, 3-[(3,4-Difluoro-benzyl)-methoxy-carbamoyl]-2-hydroxy-acrylic acid] | 127 to 129 °C | 99.9% |
| O=C(O)/C(O)=C/C(=O)N(Cc1ccc(Cl)c(Cl)c1)OCc1ccccc1 [Compound 6, 3-[Benzyloxy-(3,4-dichloro-benzyl)-carbamoyl]-2-hydroxy-acrylic acid] |  | 99.9% |

| SMILES | melting point | inhibition at 50 µM [1] |
| --- | --- | --- |
| CCCCCCN(CCCCCC)C(=O)CON(Cc1ccc(F)cc1)C(=O)/C=C(\O)C(=O)O [Compound 75] |  | > 99% |
| CC(NC(=O)CON(Cc1ccc(F)cc1)C(=O)/C=C(\O)C(=O)O)c1ccccc1 (stereo not shown) [Compound 64] |  | > 99% |
| CC(C)CN(CC(C)C)C(=O)CON(Cc1ccc(F)cc1)C(=O)/C=C(\O)C(=O)O [Compound 74] |  | > 99% |
| CON(Cc1ccc(C#N)cc1)C(=O)/C=C(\O)C(=O)O [Compound 21, 3-[(4-Cyano-benzyl)-methoxy-carbamoyl]-2-hydroxy-acrylic acid] | 135 to 137 °C (dec.) | 99.9% |
| O=C(O)/C(O)=C/C(=O)N(Cc1ccc(F)cc1)OCC(=O)N(C1CCCCC1)C1CCCCC1 [Compound 76] |  | > 99% |
| CN(C)C(=O)CON(Cc1ccc(F)cc1)C(=O)/C=C(\O)C(=O)O [Compound 22, 3-[Dimethylcarbamoylmethoxy-(4-fluoro-benzyl)-carbamoyl]-2-hydroxy-acrylic acid] | 118 to 120 °C | 99.9% |
| COc1ccc(CN(OC)C(=O)/C=C(\O)C(=O)O)cc1 [Compound 16, 2-Hydroxy-3-[methoxy-(4-methoxy-benzyl)-carbamoyl]-acrylic acid] | 83 to 86 °C | 99% |
| CON(Cc1ccc(Cl)cc1)C(=O)/C=C(\O)C(=O)O [Compound 10, 3-[(4-Chloro-benzyl)-methoxy-carbamoyl]-2-hydroxy-acrylic acid] |  | 99.9% |
| CON(Cc1ccccc1F)C(=O)/C=C(\O)C(=O)O [Compound 8, 3-[(2-Fluoro-benzyl)-methoxy-carbamoyl]-2-hydroxy-acrylic acid] |  | 99.9% |
| CON(Cc1cccc(F)c1)C(=O)/C=C(\O)C(=O)O [Compound 7, 3[(3-Fluoro-benzyl)-methoxy-carbamoyl]-2-hydroxy-acrylic acid] |  | 99.9% |
| CON(Cc1ccccc1)C(=O)/C=C(\O)C(=O)O [Compound 1, 3-(Benzyl-methoxy-carbamoyl)-2-hydroxy-acrylic acid] |  | 99% |
| CC(C)CNC(=O)CON(Cc1ccc(F)cc1)C(=O)/C=C(\O)C(=O)O [Compound 79] |  | > 99% |
| CC(NC(=O)CON(Cc1ccc(F)cc1)C(=O)/C=C(\O)C(=O)O)c1ccc(F)cc1 (stereo not shown) [Compound 70] |  | > 99% |
| CN(CCCN1c2ccccc2CCc2ccccc21)C(=O)CON(Cc1ccc(F)cc1)C(=O)/C=C(\O)C(=O)O [Compound 63] |  | > 99% |
| O=C(CON(Cc1ccc(F)cc1)C(=O)/C=C(\O)C(=O)O)NCc1ccc(F)cc1 [Compound 65] |  | > 99% |
